The values that follow come from patent US7402595B2, “JNK inhibitor” (Takeda Pharmaceutical Company Limited, priority 2002, dated 2008).

For one assay, the target named is T1, human JNK1 (Homo sapiens, UniProt P45983).
T1 construct: His6 (Met-Ala-His6, read from primer JNK1-U) (N); made in house; host or cells: Sf-21 insect cells (baculovirus BAC-HJNK1 co-infected with BAC-caMKK7); cJUN substrate from E. coli JM109
Description: Measurement of JNK inhibitory activity (32P uptake into cJUN by active JNK1). Conditions: 2.5 μM ATP, 30° C., 60 min. In kind it is biochemical. The method, then: (4) Preparation of Active JNK1
Sf-21 cells were seeded to achieve 1×10^6 cells/ml in 100 ml of Sf-900 II SFM medium (GIBCO BRL) containing 10% fetal calf serum and cultured at 27° C. for 24 hrs. The recombinant baculovirus virus stock BAC-HJNK1 and BAC-caMKK7 were added by 0.2 ml each, and the cells were further cultured for 60 hrs. The cells were separated from the culture solution by centrifugation (3000 rpm, 10 min.) and washed twice with PBS. The cells were suspended in 10 ml of Lysis buffer (25 mM HEPES (pH 7.5), 1% Triton X, 130 mM NaCl, 1 mM EDTA, 1 mM DTT, 25 mM β-glycerophosphate, 20 μM leupeptin, 1 mM APMSF, 1 mM sodium orthovanadate) and ruptured by 4 times of treatment with a homogenizer (POLYTRON) at 20000 rpm, 30 seconds each. Active JNK1 was purified from a supernatant obtained by centrifugal separation (40000 rpm, 45 min.) by the use of Anti-FLAG M2 Affinity Gel (Sigma).
(5) Preparation of Recombinant cJUN
Escherichia coli JM109 (Toyobo Co., Ltd.) was transformed with a plasmid pGEJUN to give ampicillin resistant pGEJUN/JM109. The pGEJUN/JM109 strain was cultured overnight in 150 ml of LB medium (10 g/l tripton, 5 g/l yeast extract, 10 g/l sodium chloride) containing 50 μg/ml ampicillin at 200 rpm, 37° C. The culture solution (15 ml) was added to a fresh LB medium (150 ml) and cultured at 37° C. for 2 hrs. at 200 rpm. 1 mM IPTG (Wako Pure Chemical Industries, Ltd.) was added and the cells were further cultured for 6 hrs. The culture solution was centrifuged at 8000 rpm for 10 min. and bacterial cells were recovered, washed with PBS and frozen at −80° C. The cells were suspended in 20 ml of lysis buffer (B-PER bacterial protein extraction reagent (Pierce), Protease inhibitor Complete (Boehringer)) and shaken at room temperature for 10 min. After centrifugal separation (14000 rpm, 15 min., 4° C.), and GST-cJUN fused protein was purified from the supernatant using Redipack GST Purification Module (Amersham-Pharmacia Biotech).
(6) Measurement of JNK Inhibitory Activity
A reaction solution (37.5 μl, 25 mM HEPES (pH 7.5), 10 mM magnesium acetate, 1 mM DTT) containing 50 ng of active JNK1 and 1 μg of cJUN […]. The test compound (2.5 μl) was added and the mixture was incubated at 30° C. for 5 min. […] After reacting at 30° C. for 60 min., 50 μl of 20% TCA solution was added to stop the reaction. The reaction solution was left standing at 0° C. for 20 min. and an acid-insoluble fraction was transferred onto a GF/C filter (Packard Japan) using Cell Harvester (Packard Japan), and washed with 250 mM phosphoric acid. After drying at 45° C. for 60 min., 40 μl of Microscint 0 (Packard Japan) was added and the radioactivity was measured on TopCount (Packard Japan).

For a further assay, the target named is p38α (Homo sapiens, UniProt Q16539). Description: Inhibitory action on p38α. In kind it is biochemical.
p38α, sequence (Q16539 whole entry): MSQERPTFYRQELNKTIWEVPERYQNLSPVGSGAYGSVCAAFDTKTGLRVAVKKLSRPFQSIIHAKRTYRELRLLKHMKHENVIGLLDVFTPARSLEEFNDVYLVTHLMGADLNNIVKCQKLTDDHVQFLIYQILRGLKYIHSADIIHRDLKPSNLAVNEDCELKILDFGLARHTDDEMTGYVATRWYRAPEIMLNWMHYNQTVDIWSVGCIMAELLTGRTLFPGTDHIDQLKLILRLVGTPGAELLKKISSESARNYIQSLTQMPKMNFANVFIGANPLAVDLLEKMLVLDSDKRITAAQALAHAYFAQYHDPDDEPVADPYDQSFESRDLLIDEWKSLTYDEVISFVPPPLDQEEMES
The next assay concerns the target ERK1 (Homo sapiens, UniProt P27361). Description: Inhibitory action on ERK1. In kind it is biochemical.
For a further assay, the system named is Male wistar rats. The assay is described as follows: Pressure overloaded cardiac hypertrophy induced by an abdominal aortic stenosis (rat). It is filed as in vivo. Particulars: 10 mg/kg p.o. once a day, day 7 after aortic stenosis. The method, then:
Preparation of the Model of Pressure Overloaded Cardiac Hypertrophy Induced by an Abdominal Aortic Stenosis (Rat)
Male wistar rats (body weight 260-300 g, CLEA Japan, Inc) were used. Under xylazine (10 mg/kg, i.p.) and ketamine (50 mg/kg, i.p.) anesthesia, abdominal aorta was exposed by median laparotomy. The left and right renal arteries were detached from the back, a 22G injection needle was put along the artery and it was ligated together with the aorta using a 2-0 silk thread just below the right renal artery. Then, the injection needle was removed to make a stenosis in the abdominal aorta. The abdomen was closed and the rats were housed commonly. For a sham group, the abdomen was closed without ligation (no stenosis) with a silk thread. A compound was suspended in a 0.5% methyl cellulose solution (2 ml/kg) and orally administered at a dose of 10 mg/kg 1 hr. before aortic stenosis and once a day from day 1 (the next day of stricture) to day 7 after operation. Vehicle (0.5% methyl cellulose solution) was administered instead of the compound to the sham group and control group. At day 7 after the preparation of aortic stenosis, the body weight was measured, and the heart was removed and then extracted under pentobarbital (50 mg/kg, i.p.) anesthesia. The right and left artium and right ventricle were excised from the heart and the wet weight of the left ventricle was measured. The left ventricle weight to body weight ratio of each rat was calculated and an increase from the average value of the sham group was calculated. Inhibitory rate of each group to a cardiac hypertrophy was calculated based on the control group as 100%.

The structures appear in SMILES notation.

ERK1, sequence (P27361 whole entry): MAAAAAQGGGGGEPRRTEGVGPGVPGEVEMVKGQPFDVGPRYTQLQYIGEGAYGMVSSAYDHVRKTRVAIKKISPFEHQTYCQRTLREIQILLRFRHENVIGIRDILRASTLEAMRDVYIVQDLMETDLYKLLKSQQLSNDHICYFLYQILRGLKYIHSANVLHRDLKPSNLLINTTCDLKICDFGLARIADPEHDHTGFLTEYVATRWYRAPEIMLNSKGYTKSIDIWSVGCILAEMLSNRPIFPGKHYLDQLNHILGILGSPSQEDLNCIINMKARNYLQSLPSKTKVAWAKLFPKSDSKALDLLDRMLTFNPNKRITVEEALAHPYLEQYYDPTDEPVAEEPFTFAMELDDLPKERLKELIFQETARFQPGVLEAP
T1 sequence (P45983 1-384 isoform P45983-2): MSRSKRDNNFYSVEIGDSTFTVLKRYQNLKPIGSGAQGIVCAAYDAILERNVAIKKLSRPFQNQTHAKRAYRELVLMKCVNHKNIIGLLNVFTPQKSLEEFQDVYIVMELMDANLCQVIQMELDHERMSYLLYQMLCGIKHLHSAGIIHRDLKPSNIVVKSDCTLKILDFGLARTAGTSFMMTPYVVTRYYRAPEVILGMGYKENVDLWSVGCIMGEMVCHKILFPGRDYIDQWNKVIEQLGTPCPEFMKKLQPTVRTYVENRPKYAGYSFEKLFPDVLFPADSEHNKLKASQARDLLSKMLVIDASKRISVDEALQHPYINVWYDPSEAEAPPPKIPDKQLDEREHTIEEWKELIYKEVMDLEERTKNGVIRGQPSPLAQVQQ

Consider `COC(=O)c1c(-c2ccccc2)c2cc(Br)ccc2c(=O)n1Cc1ccc(NC(=O)CCC(=O)O)cc1` [Example 122, 6-bromo-2-[4-(3-carboxypropionylamino)benzyl]-1-oxo-4-phenyl-1,2-dihydroisoquinoline-3-carboxylic acid methyl ester], for which, on human JNK1, the half-maximal inhibitory concentration (IC50) was found to be 9.2 nM. Further, the inhibition at 10 µM on p38α and against ERK1 was 0% each time.
The compound `COC(=O)c1c(-c2ccccc2)c2cc(Br)ccc2c(=O)n1Cc1ccc(S(N)(=O)=O)cc1` [Example 93, 6-bromo-1-oxo-4-phenyl-2-(4-sulfamoylbenzyl)-1,2-dihydroisoquinoline-3-carboxylic acid methyl ester] returned an IC50 at human JNK1 of 14 nM. Moreover, the inhibition at 10 µM at p38α came to 20%; on ERK1, 0%.
The matching figures for `COC(=O)c1c(-c2ccccc2)c2cc(Br)ccc2c(=O)n1Cc1ccc(C(=O)NCCN2CCCC2)cc1` [Example 141, 6-bromo-1-oxo-4-phenyl-2-[4-(2-(pyrrolidin-1-yl)ethylcarbamoyl)benzyl]-1,2-dihydroisoquinoline-3-carboxylic acid methyl ester]: 37 nM, 10% and 4%.
`CCC(=O)c1c(-c2ccccc2)c2cc(Cl)ccc2c(=O)n1Cc1ccc(C(=O)O)cc1` [Example 463, 4-(6-chloro-1-oxo-4-phenyl-3-propionyl-1H-isoquinolin-2-ylmethyl)benzoic acid]: the 50% inhibitory concentration (IC50) on human JNK1 amounted to 16 nM. Moreover, the inhibition at 10 µM worked out at 0% at p38α and 22% on ERK1.
On to `CCC(=O)c1c(-c2ccccc2)c2cc(Br)ccc2c(=O)n1Cc1ccc(-c2nnn[nH]2)cc1` [Example 495, 6-bromo-4-phenyl-3-propionyl-2-[4-(1H-tetrazol-5-yl)benzyl]-2H-isoquinolin-1-one], for which the IC50 against human JNK1 was 6.7 nM. In addition, the inhibition at 10 µM on p38α was 0%; against ERK1 it was 37%.
The like results for `C/C(N)=C/C(=O)c1c(-c2ccccc2)c2cc(Br)ccc2c(=O)n1Cc1ccc(S(C)(=O)=O)cc1` [Example 546, 3-[(2Z)-3-aminobut-2-enoyl]-6-bromo-2-(4-methanesulfonylbenzyl)-4-phenyl-2H-isoquinolin-1-one] were, in that order, 32 nM, 0% and 5%.
Compound `CCCC(=O)c1c(-c2ccccc2)c2cc(Cl)ccc2c(=O)n1Cc1ccc(S(N)(=O)=O)cc1` [Example 455, 4-(6-chloro-3-butyryl-1-oxo-4-phenyl-1H-isoquinolin-2-ylmethyl)benzenesulfonamide] showed a half-inhibitory concentration (IC50) against human JNK1 of 34 nM. Moreover, the inhibition at 10 µM against p38α and against ERK1 was 0% each time.
`CC(=O)c1c(-c2ccccc2)c2cc(Br)ccc2c(=O)n1Cc1ccc(S(N)(=O)=O)cc1` [Example 415, 3-acetyl-6-bromo-4-phenyl-2-(4-sulfamoylbenzyl)-2H-isoquinolin-1-one] had an IC50 against human JNK1 of 39 nM. The inhibition at 10 µM against p38α and at ERK1 was 0% in each case.
For `CCC(=O)c1c(-c2ccccc2)c2cc(Br)ccc2c(=O)n1Cc1ccc(S(C)(=O)=O)cc1` [Example 315, 6-bromo-2-(4-methanesulfonylbenzyl)-4-phenyl-3-propionyl-2H-isoquinolin-1-one], on human JNK1, it took 46 nM to reach half-maximal inhibition (IC50). On p38α, testing at 10 µM gave an inhibition of 0%. The same compound returned an inhibition at 10 µM on ERK1 of 1%. In the assay on Male wistar rats, the “Inhibitory rate (cardiac hypertrophy, control group as 100%)” value is listed as “rate 44%)”; the “Left ventricular weight/body weight ratio (mg/g) amount of increase from sham group” value is listed as 0.29 ± 0.05 (Inhibitory mg/g; the “Left ventricular weight/body weight ratio (mg/g) value” worked out at 2.19 ± 0.05 mg/g.
`COC(=O)c1c(-c2ccccc2)c2cc(Br)ccc2c(=O)n1Cc1ccc(S(C)(=O)=O)cc1` [Example 94, 6-bromo-2-(4-methanesulfonylbenzyl)-1-oxo-4-phenyl-1,2-dihydroisoquinoline-3-carboxylic acid methyl ester]: the figures for the inhibition at 10 µM against p38α and on ERK1 were 2% and 0%, respectively. Further, the “Inhibitory rate (cardiac hypertrophy, control group as 100%)” value in the assay on Male wistar rats is on record as “rate 40%)”.
The compound `COC(=O)c1c(-c2ccccc2)c2cc(Br)ccc2c(=O)n1Cc1ccc(C(=O)O)cc1` [Example 102, 6-bromo-2-(4-carboxybenzyl)-1-oxo-4-phenyl-1,2-dihydroisoquinoline-3-carboxylic acid methyl ester] gave an IC50 at human JNK1 of 20 nM. Also, the inhibition at 10 µM on p38α and against ERK1 was 0% throughout.
On human JNK1, `COC(=O)c1c(-c2ccccc2)c2cc(N)ccc2c(=O)n1Cc1ccc2c(c1)OCO2` [Example 156, 6-amino-2-(benzo[1,3]dioxol-5-ylmethyl)-1-oxo-4-phenyl-1,2-dihydroisoquinoline-3-carboxylic acid methyl ester] returned an IC50 of 28 nM. Further, the inhibition at 10 µM against p38α came out at 10%; at ERK1, 16%.
Compound `CCN(CC)NC(=O)c1ccc(Cn2c(C(=O)OC)c(-c3ccccc3)c3cc(Br)ccc3c2=O)cc1` [Example 356, 6-bromo-2-[4-(N′,N′-diethylhydrazinocarbonyl)benzyl]-1-oxo-4-phenyl-1,2-dihydroisoquinoline-3-carboxylic acid methyl ester] showed an IC50 against human JNK1 of 7.5 nM. The inhibition at 10 µM at p38α and on ERK1 was 0% throughout.
As to `COC(=O)c1c(-c2ccccc2)c2cc(Br)ccc2c(=O)n1Cc1ccc2c(c1)OCO2` [Example 24, 2-(benzo[1,3]dioxol-5-ylmethyl)-6-bromo-1-oxo-4-phenyl-1,2-dihydroisoquinoline-3-carboxylic acid methyl ester], the IC50 at human JNK1 was found to be 18 nM. The figures for the inhibition at 10 µM on p38α and at ERK1 were 18% and 39%, respectively.
The matching figures for `CCC(=O)c1c(-c2ccccc2)c2cc(Br)ccc2c(=O)n1Cc1ccc(C(=O)O)cc1` [Example 462, 4-(6-bromo-1-oxo-4-phenyl-3-propionyl-1H-isoquinolin-2-ylmethyl)benzoic acid]: 9.1 nM, 0% and 13%.
The like results for `COC(=O)c1c(-c2ccccc2)c2cc(Br)ccc2c(=O)n1CC1CCN(C(C)=O)CC1` [Example 112, 2-(1-acetylpiperidin-4-ylmethyl)-6-bromo-1-oxo-4-phenyl-1,2-dihydroisoquinoline-3-carboxylic acid methyl ester] were, in that order, 3000 nM, 0% and 0.095%.
